Experimental data: ChEMBL document CHEMBL1201862, “PubChem BioAssay data set” (2004)
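Compound exposure: 48 hours, 5 concentrations, 96-well plates. GI50: concentration for 50% inhibition of growth.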 Activity calls are given as the source filed them. No stated cut-off is given here; in the data, active = GI50 up to about 1.1 µM and inactive = higher.

Assays:
Test in all cases: growth of human tumour cells (NCI), 48 h
786-0 = tested on: 786-0
A549 = tested on: A549
EKVX = tested on: EKVX
HOP-92 = tested on: HOP-92
IGROV-1 = tested on: IGROV-1
K562 = tested on: K562
MOLT-4 = tested on: MOLT-4
Malme-3M = tested on: Malme-3M
OVCAR-4 = tested on: OVCAR-4
OVCAR-5 = tested on: OVCAR-5
RPMI-8226 = tested on: RPMI-8226
SK-MEL-5 = tested on: SK-MEL-5
SK-OV-3 = tested on: SK-OV-3
SNB-19 = tested on: SNB-19
SR = tested on: SR
SW-620 = tested on: SW-620
U-251 = tested on: U-251
UO-31 = tested on: UO-31

Measured: GI50

COc1ccc(NC(=O)CC/C(CC(=O)c2ccco2)=N/Nc2ccc([N+](=O)[O-])cc2[N+](=O)[O-])cc1
inactive: 786-0 > 100 µM | A549 > 100 µM | EKVX > 100 µM | HOP-92 34.4 µM | IGROV-1 > 100 µM | K562 32 µM | MOLT-4 29.3 µM | Malme-3M > 100 µM | OVCAR-4 96.2 µM | OVCAR-5 > 100 µM | RPMI-8226 17.1 µM | SK-MEL-5 48.4 µM | SK-OV-3 > 100 µM | SNB-19 > 100 µM | SR 26.7 µM | SW-620 99.8 µM | U-251 > 100 µM | UO-31 > 100 µM

CCn1cc(/C=C/C(C)c2cn(CC)c(=O)[nH]c2=O)c(=O)[nH]c1=O (stereo unspecified)
inactive: 786-0 > 100 µM | A549 > 100 µM | EKVX > 100 µM | HOP-92 11.3 µM | IGROV-1 > 100 µM | K562 > 100 µM | MOLT-4 > 100 µM | Malme-3M > 100 µM | OVCAR-4 > 100 µM | OVCAR-5 > 100 µM | RPMI-8226 > 100 µM | SK-MEL-5 > 100 µM | SK-OV-3 > 100 µM | SNB-19 > 100 µM | SW-620 > 100 µM | U-251 > 100 µM | UO-31 > 100 µM

NC(=O)Nc1c([N+](=O)[O-])cc(C(F)(F)F)cc1[N+](=O)[O-]
inactive: 786-0 > 100 µM | A549 > 100 µM | EKVX > 100 µM | HOP-92 40.5 µM | IGROV-1 > 100 µM | K562 56.2 µM | MOLT-4 > 100 µM | OVCAR-4 63.1 µM | OVCAR-5 > 100 µM | RPMI-8226 > 100 µM | SK-MEL-5 49.3 µM | SNB-19 > 100 µM | SR > 100 µM | SW-620 51.2 µM | U-251 > 100 µM | UO-31 > 100 µM

CC1(C)CCC(Sc2ccccc2)O1 (stereo unspecified)
inactive: 786-0 > 100 µM | A549 > 100 µM | EKVX > 100 µM | HOP-92 > 100 µM | IGROV-1 > 100 µM | K562 > 100 µM | MOLT-4 > 100 µM | OVCAR-4 > 100 µM | RPMI-8226 > 100 µM | SK-MEL-5 > 100 µM | SK-OV-3 > 100 µM | SNB-19 > 100 µM | SR > 100 µM | SW-620 > 100 µM | U-251 > 100 µM | UO-31 > 100 µM

Cc1cc(C)nc(NS(=O)(=O)c2ccc(Nc3c4ccc(Cl)cc4nc4c(C(=O)Nc5ccc(S(N)(=O)=O)cc5)cccc34)cc2)n1
inactive: 786-0 15.2 µM | EKVX 21 µM | K562 25.1 µM | MOLT-4 9.77 µM | Malme-3M 33 µM | OVCAR-4 23.5 µM | OVCAR-5 14.7 µM | RPMI-8226 21.5 µM | SK-OV-3 13.9 µM | SNB-19 24.6 µM | SR 16.6 µM | U-251 14.4 µM | UO-31 18.6 µM

CCN(CC)CC(C(C)=O)C(c1ccccc1)c1c(O)c2ccccc2oc1=O (stereo unspecified)
inactive: 786-0 > 100 µM | A549 > 100 µM | EKVX > 100 µM | IGROV-1 > 100 µM | K562 > 100 µM | MOLT-4 > 100 µM | Malme-3M > 100 µM | OVCAR-4 > 100 µM | OVCAR-5 > 100 µM | RPMI-8226 > 100 µM | SK-MEL-5 > 100 µM | SK-OV-3 > 100 µM | SNB-19 > 100 µM | SR > 100 µM | SW-620 > 100 µM | U-251 > 100 µM | UO-31 > 100 µM

O=C(CCc1nnc2s/c(=C\c3ccccc3)c(=O)n12)Nc1cc(Cl)ccc1Cl
inactive: 786-0 > 100 µM | A549 > 100 µM | EKVX > 100 µM | HOP-92 > 100 µM | IGROV-1 > 100 µM | K562 > 100 µM | MOLT-4 > 100 µM | Malme-3M > 100 µM | OVCAR-4 > 100 µM | OVCAR-5 > 100 µM | RPMI-8226 > 100 µM | SK-MEL-5 > 100 µM | SK-OV-3 > 100 µM | SNB-19 > 100 µM | SR > 100 µM | SW-620 4.15 µM | U-251 > 100 µM | UO-31 > 100 µM

O=C1OC(/C=C/c2ccccc2)C(=O)C1=O (stereo unspecified)
inactive: 786-0 > 100 µM | A549 > 100 µM | EKVX > 100 µM | HOP-92 > 100 µM | IGROV-1 > 100 µM | K562 > 100 µM | MOLT-4 > 100 µM | Malme-3M > 100 µM | OVCAR-4 > 100 µM | OVCAR-5 > 100 µM | RPMI-8226 > 100 µM | SK-OV-3 > 100 µM | SNB-19 > 100 µM | SW-620 > 100 µM | U-251 > 100 µM | UO-31 > 100 µM
